Holding throughout (assay): Bliss excess, mean over the matrix (fraction); higher = more synergy
Assay [1] relates to AM-38 (Glioblastoma). The method, boiled down:
(§1)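 After 24 hours at 37°C and 5% CO2 in 1536-well plates, cells in DMEM/F12 or RPMI plus 10% FBS received two-drug dose matrices for 72 hours. Viability came from CellTiter-Glo 2.0 luminescence and was scaled as inhibition, anchored at 0 by vehicle wells and at 1 by blank wells. Combination Emax is taken as the second-highest inhibition in the matrix, and Bliss excess as the observed combination effect less EA + EB − EA·EB, with EA and EB the single-agent effects.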

Assay [2] deals with BHT-101 (Thyroid Gland Carcinoma). The method, boiled down:
as §1

The test system of assay [3] is COR-L88 (Small Cell Lung Carcinoma). The method, boiled down:
as §1

The subject of assay [4] is DBTRG-05MG (Glioblastoma). Put shortly:
as §1

The subject of assay [5] is HT-1080 (Other Solid Carcinomas). The method, boiled down:
as §1

In assay [6] the test system is IA-LM (Non-Small Cell Lung Carcinoma). The method, boiled down: as §1
The subject of assay [7] is IST-MEL1 (Melanoma). Put shortly:
as §1

Assay [8] deals with MOLT-13 (T-Lymphoblastic Leukemia). Put shortly: as §1
Assay [9] concerns MONO-MAC-6 (Acute Myeloid Leukemia). Put shortly: as §1
In assay [10] the test system is MS-1 (Small Cell Lung Carcinoma). Put shortly:
as §1

Assay [11] concerns NCI-H1341 (Small Cell Lung Carcinoma). Put shortly: as §1
Assay [12] has as its system NCI-H226 (Mesothelioma). The method, boiled down:
as §1

For assay [13], the system named is NMC-G1 (Low Grade Glioma). The method, boiled down: as §1
Assay [14] has as its system Raji (Burkitt's Lymphoma). Put shortly: as §1
The test system of assay [15] is SAT (Head and Neck Carcinoma). Put shortly: as §1
Assay [16] relates to SK-N-SH (Neuroblastoma). Put shortly: as §1
In assay [17] the test system is SNU-C2B (Colorectal Carcinoma). The method, boiled down: as §1
Assay [18] has as its system SiHa (Cervical Carcinoma). Put shortly:
as §1

In assay [19] the test system is T84 (Colorectal Carcinoma). The method, boiled down:
as §1

Assay [20] concerns TUR (Acute Myeloid Leukemia). The method, boiled down: as §1

As to `CN(CCO)CC[C@H](CSc1ccccc1)Nc1ccc(S(=O)(=O)NC(=O)c2ccc(N3CCC([C@@H](O)c4ccccc4-c4ccc(Cl)cc4)CC3)cc2)cc1S(=O)(=O)C(F)(F)F` [AZD4320] + C=CCn1c(=O)c2cnc(Nc3ccc(N4CCN(C)CC4)cc3)nc2n1-c1cccc(C(C)(C)O)n1 [AZD1775] (first compound max 1 µM, partner max 1 µM), the Bliss excess is 0.0931 in assay [1]; 0.0142 in assay [2]; 0.0578 in [3]; 0.0555 in [4]; -0.0354 in [5]; 0.0161 in [6]. Also, the Bliss excess in assay [7] is 0.0339; in assay [8], 0.064; in assay [9], 0.117; in assay [10] it was 0.112; in [11] it was 0.0676; in assay [12], -0.025. The Bliss excess in assay [13] is 0.0422; in assay [14] it was -0.0028; in [15] it was -0.0251; in [16] it was -0.0141; in assay [17] it was -0.0143; in assay [18], -0.0358. The Bliss excess is -0.0408 in assay [19] and 0.0015 in assay [20].
Take `CN(CCO)CC[C@H](CSc1ccccc1)Nc1ccc(S(=O)(=O)NC(=O)c2ccc(N3CCC([C@@H](O)c4ccccc4-c4ccc(Cl)cc4)CC3)cc2)cc1S(=O)(=O)C(F)(F)F` [AZD4320] + CCN(CCO)CCCOc1ccc2c(Nc3cc(CC(=O)Nc4cccc(F)c4)[nH]n3)ncnc2c1 [AZD2811] (first compound max 1 µM, 7x7, partner max 1 µM): the Bliss excess in assay [1] was 0.0616; in assay [2], -0.0112; in [3], 0.0591; in assay [4], 0.0363; in assay [5], -0.0046; in assay [6], 0.0119. Also, the Bliss excess in assay [7] is 0.0445; in assay [8] it was -0.0204; in assay [9], 0.145; in assay [10], 0.0349; in [11], 0.0422; in [12], -0.0238. The Bliss excess is 0.0047 in assay [13]; 0.0111 in [14]; 0.0112 in [15]; -0.143 in [16]; -0.0031 in assay [17]; -0.0219 in assay [18]. Besides, the Bliss excess is -0.0305 in [19] and 0.0393 in [20].
Regarding `CN(CCO)CC[C@H](CSc1ccccc1)Nc1ccc(S(=O)(=O)NC(=O)c2ccc(N3CCC([C@@H](O)c4ccccc4-c4ccc(Cl)cc4)CC3)cc2)cc1S(=O)(=O)C(F)(F)F` [AZD4320] + CN(C)CCCOc1ccc(-c2ccc3ncc4c(c3c2)n(C2CCOCC2)c(=O)n4C)cn1 [AZD0156] (first compound max 1 µM, 7x7, partner max 1 µM), the Bliss excess is 0.112 in assay [1]; -0.0193 in assay [2]; -0.0161 in assay [3]; -0.0497 in [4]; -0.0895 in assay [5]; -0.0239 in assay [6]. Besides, the Bliss excess is -0.0151 in assay [7]; 0.0257 in assay [8]; 0.0324 in assay [9]; 0.0275 in assay [10]; 0.0517 in assay [11]; -0.0589 in assay [12]. The Bliss excess was -0.0362 in assay [13]; 0.0041 in assay [14]; -0.0214 in [15]; -0.0439 in assay [16]; -0.0007 in [17]; -0.0537 in [18]. In addition, the values for the Bliss excess in assay [19] and in [20] were -0.0243 and -0.0023, respectively.
As to `CN(CCO)CC[C@H](CSc1ccccc1)Nc1ccc(S(=O)(=O)NC(=O)c2ccc(N3CCC([C@@H](O)c4ccccc4-c4ccc(Cl)cc4)CC3)cc2)cc1S(=O)(=O)C(F)(F)F` [AZD4320] + C[C@@H](Nc1cc(F)cc(F)c1)c1cc(C(=O)N(C)C)cc2c(=O)cc(N3CCOCC3)oc12 [AZD8186] (first compound max 1 µM, 7x7, partner max 3 µM), the Bliss excess was -0.0033 in [1]; -0.0192 in assay [2]; 0.008 in assay [3]; 0.02 in assay [4]; -0.0232 in assay [5]; 0.0085 in assay [6]. For the same molecule, the Bliss excess was 0.0237 in assay [7]; 0.0093 in assay [8]; 0.0342 in assay [9]; 0.0115 in assay [10]; 0.0517 in assay [11]; -0.015 in [12]. The Bliss excess in [13] was 0.0254; in assay [14], 0.0133; in assay [15], -0.0231; in [16], -0.071; in [17], 0.0342; in assay [18], -0.0165. In addition, the Bliss excess in [19] was -0.0287; in [20], 0.0019.
`CN(CCO)CC[C@H](CSc1ccccc1)Nc1ccc(S(=O)(=O)NC(=O)c2ccc(N3CCC([C@@H](O)c4ccccc4-c4ccc(Cl)cc4)CC3)cc2)cc1S(=O)(=O)C(F)(F)F` [AZD4320] + Cc1cc2ncnn2cc1Nc1ncc2c(n1)n(C1CCOCC1)c(=O)n2C [AZD7648] (first compound max 1 µM, 7x7, partner max 10 µM): the Bliss excess in assay [1] is -0.003; in assay [2] it was -0.0361; in assay [3], 0.0052; in assay [4], -0.0015; in assay [5], -0.0757; in assay [6] it was -0.0482. The Bliss excess in assay [7] is -0.0465; in assay [8] it was 0.0309; in assay [9], 0.0106; in assay [10] it was -0.0409; in [11], 0.0254; in assay [12], -0.0674. Moreover, the Bliss excess in [13] was -0.0452; in assay [14] it was 0.0189; in [15] it was -0.0621; in assay [16] it was 0.0283; in [17], -0.0126; in assay [18], -0.0385. Moreover, the Bliss excess was -0.0314 in [19] and 0.0088 in [20].
Regarding `CN(CCO)CC[C@H](CSc1ccccc1)Nc1ccc(S(=O)(=O)NC(=O)c2ccc(N3CCC([C@@H](O)c4ccccc4-c4ccc(Cl)cc4)CC3)cc2)cc1S(=O)(=O)C(F)(F)F` [AZD4320] + Cn1cnc2c(F)c(Nc3ccc(Br)cc3Cl)c(C(=O)NOCCO)cc21 [Selumetinib] (first compound max 1 µM, 7x7, partner max 3 µM), the Bliss excess is 0.0746 in assay [1]; 0.0147 in [2]; 0.121 in assay [3]; 0.0074 in [4]; -0.0965 in assay [5]; 0.0652 in assay [6]. Further, the Bliss excess was -0.072 in [7]; 0.0816 in assay [8]; 0.0401 in assay [9]; 0.0229 in assay [10]; 0.0615 in assay [11]; -0.0248 in [12]. In addition, the Bliss excess in assay [13] was -0.0624; in assay [14], 0.0188; in assay [15], 0.0523; in assay [16], 0.0457; in assay [17], 0.0528; in [18], -0.0315. Moreover, the Bliss excess in assay [19] was 0.0142; in assay [20], 0.0029.

Source of the values: the supplement of paper PMC11061612.
